Assay results: ChEMBL document CHEMBL1154782, “Discovery of Trp-His and His-Arg analogues as new structural classes of short antimicrobial peptides” (J Med Chem, 2009)
≈ marks a conversion by molar mass, not a printed value. Where a SMILES comes first, the peptide text is derived from it. The star is where a group is joined. Boc = CC(C)(C)OC(=O)*; NHBn = c1ccc(CN*)cc1

Key:
[1] = system: Staphylococcus epidermidis; assay: Antibacterial activity against methicillin-resistant Staphylococcus epidermidis DSM 50160384 after 15 to 18 hrs under aerobic condition by modified broth microdilution method; assay type: functional
Candida albicans [2] = assay: Antifungal activity against Candida albicans ATCC 10231 after 15 to 18 hrs under aerobic condition by modified broth microdilution method; assay type: functional
Staphylococcus aureus [3] = assay: Antibacterial activity against methicillin-resistant Staphylococcus aureus DSM 50128509 after 15 to 18 hrs under aerobic condition by modified broth microdilution method; assay type: functional
Staphylococcus aureus [4] = assay: Antibacterial activity against methicillin-resistant Staphylococcus aureus DSM 50128509; assay type: functional, organism-based
Klebsiella pneumoniae = assay: Antibacterial activity against Klebsiella pneumoniae ATCC 700603 after 15 to 18 hrs under aerobic condition by modified broth microdilution method; assay type: functional
[5] = system: Staphylococcus epidermidis; assay: Antibacterial activity against methicillin-resistant Staphylococcus epidermidis DSM 50160384; assay type: functional, organism-based
Pseudomonas aeruginosa = assay: Antibacterial activity against Pseudomonas aeruginosa ATCC 9027 after 15 to 18 hrs under aerobic condition by modified broth microdilution method; assay type: functional
Candida albicans [6] = assay: Antifungal activity against Candida albicans ATCC 10231; assay type: functional, organism-based
Escherichia coli [7] = assay: Antibacterial activity against Escherichia coli ATCC 35218 after 15 to 18 hrs under aerobic condition by modified broth microdilution method; assay type: functional
L929 = assay: Cytotoxicity against mouse L929 cells up to 200 ug/mL after 5 days by MTT assay; assay type: cell-based; details: l929, 120 h
Escherichia coli [8] = assay: Antibacterial activity against Escherichia coli ATCC 35218; assay type: functional, organism-based

| Structure (SMILES) | MIC [1] [µg/mL] | MIC (Candida albicans [2]) [µg/mL] | MIC (Staphylococcus aureus [3]) [µg/mL] | IC50 (Staphylococcus aureus [4]) [µg/mL] | MIC (Klebsiella pneumoniae) [µg/mL] | IC50 [5] [µg/mL] | MIC (Pseudomonas aeruginosa) [µg/mL] | IC50 (Candida albicans [6]) [µg/mL] | MIC (Escherichia coli [7]) [µg/mL] | Activity (L929) | IC50 (Escherichia coli [8]) [µg/mL] |
| --- | --- | --- | --- | --- | --- | --- | --- | --- | --- | --- | --- |
| CC(C)(C)OC(=O)N[C@@H](Cc1c[nH]c2ccccc12)C(=O)N[C@@H](Cc1c[nH]c(C23CC4CC(CC(C4)C2)C3)n1)C(=O)NCc1ccccc1 | 200 (≈ 301 µM) | 200 (≈ 301 µM) | 100 (≈ 150 µM) | 7.59 (≈ 11.4 µM) | 200 (≈ 301 µM) | 29.1 (≈ 43.7 µM) | > 200 | 28.3 (≈ 42.6 µM) | > 200 | Non-toxic |  |
| CC(C)(C)OC(=O)N[C@@H](Cc1c[nH]cn1)C(=O)N[C@@H](CCCNC(=N)N)C(=O)NCc1ccccc1 (Boc-His-Arg-NHBn) | 100 (≈ 200 µM) | > 200 | > 200 |  | > 200 | 8.79 (≈ 17.6 µM) | > 200 |  | > 200 | Non-toxic |  |
| CC(C)(C)c1nc(C[C@H](NC(=O)[C@@H](N)Cc2c[nH]c3ccccc23)C(=O)NCc2ccccc2)c[nH]1 | 100 (≈ 205 µM) | > 200 | > 200 |  | > 200 | 9.24 (≈ 19 µM) | > 200 |  | > 200 | Non-toxic |  |
| N=C(N)NCCC[C@H](NC(=O)[C@@H](N)Cc1c[nH]c(C2CCC2)n1)C(=O)NCc1ccccc1 | 50 (≈ 110 µM) | 100 (≈ 220 µM) | 50 (≈ 110 µM) | 6.99 (≈ 15.4 µM) | > 200 | 3.94 (≈ 8.67 µM) | > 200 | 9.95 (≈ 21.9 µM) | > 200 | Non-toxic |  |
| COC(=O)[C@H](Cc1c[nH]c(C(C)(C)C)n1)NC(=O)[C@H](Cc1c[nH]c2ccccc12)NC(=O)OC(C)(C)C | 100 (≈ 195 µM) | > 200 | 50 (≈ 97.7 µM) | 4.35 (≈ 8.5 µM) | > 200 | 8.12 (≈ 15.9 µM) | > 200 |  | 200 (≈ 391 µM) | Non-toxic | 16.3 (≈ 31.8 µM) |
| CC(C)(C)c1nc(C[C@H](N)C(=O)N[C@@H](CCCNC(=N)N)C(=O)NCc2ccccc2)c[nH]1 | 10 (≈ 21.9 µM) | > 200 | 20 (≈ 43.8 µM) | 4.18 (≈ 9.15 µM) | > 200 | 3.13 (≈ 6.86 µM) | > 200 |  | > 200 | Non-toxic |  |
| COC(=O)[C@H](CCCNC(=N)N)NC(=O)[C@H](Cc1c[nH]c(C(C)(C)C)n1)NC(=O)OC(C)(C)C | 200 (≈ 415 µM) | > 200 | 100 (≈ 208 µM) | 4.15 (≈ 8.62 µM) | > 200 | 20.1 (≈ 41.8 µM) | > 200 |  | > 200 | Non-toxic |  |
| CC(C)(C)OC(=O)N[C@@H](Cc1c[nH]c2ccccc12)C(=O)N[C@@H](Cc1c[nH]c(C2CCCCC2)n1)C(=O)NCc1ccccc1 | 200 (≈ 326 µM) | > 200 | 200 (≈ 326 µM) | 31.7 (≈ 51.7 µM) | > 200 | 23.8 (≈ 38.9 µM) | > 200 |  | > 200 | Non-toxic |  |
| COC(=O)[C@H](Cc1c[nH]cn1)NC(=O)[C@H](Cc1c[nH]c2ccccc12)NC(=O)OC(C)(C)C (Boc-Trp-His-OMe) | > 200 | 200 (≈ 439 µM) | 200 (≈ 439 µM) | 16.4 (≈ 35.9 µM) | > 200 |  | > 200 | 31.4 (≈ 68.9 µM) | > 200 | Non-toxic |  |
| CC(C)c1nc(C[C@H](NC(=O)[C@H](Cc2c[nH]c3ccccc23)NC(=O)OC(C)(C)C)C(=O)NCc2ccccc2)c[nH]1 | > 200 | > 200 | 200 (≈ 349 µM) | 10.3 (≈ 17.9 µM) | > 200 |  | > 200 |  | > 200 | Non-toxic |  |
| COC(=O)[C@H](CCCNC(=N)N)NC(=O)[C@H](Cc1c[nH]cn1)NC(=O)OC(C)(C)C (Boc-His-Arg-OMe) | 100 (≈ 235 µM) | > 200 | > 200 |  | > 200 | 5.07 (≈ 11.9 µM) | > 200 |  | > 200 | Non-toxic |  |
| CN[C@H](CC(C)C)C(=O)N[C@H]1C(=O)N[C@@H](CC(N)=O)C(=O)N[C@H]2C(=O)N[C@H]3C(=O)N[C@H](C(=O)N[C@H](C(=O)O)c4cc(O)cc(O)c4-c4cc3ccc4O)[C@H](O)c3ccc(c(Cl)c3)Oc3cc2cc(c3O[C@@H]2O[C@H](CO)[C@@H](O)[C@H](O)[C@H]2O[C@H]2C[C@](C)(N)[C@H](O)[C@H](C)O2)Oc2ccc(cc2Cl)[C@H]1O [VANCOMYCIN] |  |  |  | 0.14 (≈ 0.0966 µM) |  | 0.14 (≈ 0.0966 µM) |  |  |  |  |  |
| CN[C@@H]1[C@H](O[C@H]2[C@H](O[C@H]3[C@H](O)[C@@H](O)[C@H](N=C(N)N)[C@@H](O)[C@@H]3N=C(N)N)O[C@@H](C)[C@]2(O)C=O)O[C@@H](CO)[C@H](O)[C@H]1O [STREPTOMYCIN] |  |  |  |  |  |  |  |  |  |  | 0.73 (≈ 1.26 µM) |
